Test results reported in patent US20070128217A1 (priority 2003, published 2007).

Tests used:
[1] = system: control sera (pooled serum of ten healthy LUMC hospital workers; commercial negative donor pooled serum from the Dutch bloodbank); type: binding, human; design: Binding of Control serum LUMC to linear peptides / Binding of Control serum Blood-bank to linear peptides / Binding of Control serum LUMC to looped peptides / Binding of Control Serum Blood-Bank to Looped peptides / Binding of Control serum LUMC to linear peptides of the protein M of SARS-CoV Urbani / Binding of Control serum Blood-bank to linear peptides of the protein M of SARS-CoV Urbani / Binding of Control serum LUMC to looped peptides of the protein M of SARS-CoV Urbani / Binding of Control Serum Blood-Bank to Looped peptides of the protein M of SARS-CoV Urbani: unit not given here
[2] = system: antibodies in sera from SARS patients (sera 1a, 1b, 2, 6, 37, 62, London, SARS-yellow, SARS-green); type: binding, human; design: Binding of serum 6 to linear peptides of protein X1 of SARS-CoV Urbani / Binding of serum 37 to linear peptides of protein X1 of SARS-CoV Urbani / Binding of serum 6 to looped/cyclic peptide (PEPSCAN-ELISA) / Binding of serum 37 to looped/cyclic peptide (PEPSCAN-ELISA) / Binding of serum 37 to looped/cyclic peptides of protein X1 of SARS-CoV Urbani / Binding of serum 6 to linear peptides of protein X2 / Binding of serum 37 to linear peptides of protein X2 / Binding of serum 37 to looped/cyclic peptides of protein X2 of SARS-CoV Urbani / Binding of serum 6 to linear peptides of protein M of SARS-CoV Urbani / Binding of serum 37 to linear peptides of protein M of SARS-CoV Urbani / Binding of serum 6 to looped/cyclic peptides of protein M of SARS-CoV Urbani / Binding of serum 37 to looped/cyclic peptides of protein M of SARS-CoV Urbani / Binding of serum 6 to linear peptides of protein X3 of SARS-CoV Urbani / Binding of serum 37 to linear peptides of protein X3 of SARS-CoV Urbani / Binding of serum 37 to looped/cyclic peptides of protein X3 of SARS-CoV Urbani / Binding of serum 6 to linear peptides of protein X4 of SARS-CoV Urbani / Binding of serum 37 to linear peptides of protein X4 of SARS-CoV Urbani / Binding of serum 37 to looped/cyclic peptides of protein X4 of SARS-CoV Urbani / Binding of serum 6 to linear peptides of protein X5 of SARS-CoV Urbani / Binding of serum 37 to linear peptides of protein X5 of SARS-CoV Urbani / Binding of serum 37 to looped/cyclic peptides of protein X5 of SARS-CoV Urbani / Binding of serum 6 to linear peptides of protein N of SARS-CoV Urbani / Binding of serum 37 to linear peptides of protein N of SARS-CoV Urbani / Binding of serum 6 to linear peptide (PEPSCAN-ELISA) / Binding of serum 1a to looped/cyclic peptides of protein N of SARS-CoV Urbani / Binding of serum 1b to looped/cyclic peptides of protein N of SARS-CoV Urbani / Binding of serum 2 to looped/cyclic peptides of protein N of SARS-CoV Urbani / Binding of serum 6 to looped/cyclic peptides of protein N of SARS-CoV Urbani / Binding of serum 37 to looped/cyclic peptides of protein N of SARS-CoV Urbani / Binding of serum 62 to looped/cyclic peptides of protein N of SARS-CoV Urbani / Binding of serum London to looped/cyclic peptides of protein N of SARS-CoV Urbani / Binding of serum SARS-green to looped/cyclic peptides of protein N of SARS-CoV Urbani: unit not given here
[3] = system: rabbit serum obtained by immunizing a rabbit with the SARS-CoV strain Frankfurt 1; type: binding; design: Binding of a rabbit serum to linear peptides / Binding of a rabbit serum to looped peptides / Rabbit serum linear peptides / Rabbit serum looped peptides / Binding of a rabbit serum to linear peptides of protein N of SARS-CoV Urbani (Rabbit serum linear peptides) / Binding of a rabbit serum to looped/cyclic peptides of protein N of SARS-CoV Urbani (Rabbit serum looped peptides): unit not given here

MWSFNPETNILLNVP
Binding of Control Serum Blood-Bank to Looped peptides of the protein M of SARS-CoV Urbani [1]: 0.8 | Binding of Control serum Blood-bank to linear peptides of the protein M of SARS-CoV Urbani [1]: 0.9 | Binding of Control serum LUMC to linear peptides of the protein M of SARS-CoV Urbani [1]: 0.5 | Binding of Control serum LUMC to looped peptides of the protein M of SARS-CoV Urbani [1]: 0.8 | Binding of serum 1a to linear peptides of protein M of SARS-CoV Urbani [2]: 0.8 | Binding of serum 1a to looped/cyclic peptides of protein M of SARS-CoV Urbani [2]: 0.8 | Binding of serum 1b to linear peptides of protein M of SARS-CoV Urbani [2]: 0.5 | Binding of serum 1b to looped/cyclic peptides of protein M of SARS-CoV Urbani [2]: 0.7 | Binding of serum 2 to linear peptides of protein M of SARS-CoV Urbani [2]: 0.8 | Binding of serum 2 to looped/cyclic peptides of protein M of SARS-CoV Urbani [2]: 0.9 | Binding of serum 6 to linear peptides of protein M of SARS-CoV Urbani [2]: 0.4 | Binding of serum 6 to looped/cyclic peptides of protein M of SARS-CoV Urbani [2]: 0.5 | Binding of serum 37 to linear peptides of protein M of SARS-CoV Urbani [2]: 0.9 | Binding of serum 37 to looped/cyclic peptides of protein M of SARS-CoV Urbani [2]: 0.8 | Binding of serum 62 to linear peptides of protein M of SARS-CoV Urbani [2]: 0.9 | Binding of serum 62 to looped/cyclic peptides of protein M of SARS-CoV Urbani [2]: 0.8 | Binding of serum London to linear peptides of protein M of SARS-CoV Urbani [2]: 0.3 | Binding of serum London to looped/cyclic peptides of protein M of SARS-CoV Urbani [2]: 0.2 | Binding of serum SARS-green to linear peptides of protein M of SARS-CoV Urbani [2]: 0.3 | Binding of serum SARS-green to looped/cyclic peptides of protein M of SARS-CoV Urbani [2]: 0.3 | Binding of serum SARS-yellow to linear peptides of protein M of SARS-CoV Urbani [2]: 0.1 | Binding of serum SARS-yellow to looped/cyclic peptides of protein M of SARS-CoV Urbani [2]: 0.6 | Rabbit serum linear peptides [3]: 0.4 | Rabbit serum looped peptides [3]: 0.2

ADGTRHTYQLRARSV
Binding of Control Serum Blood-Bank to Looped peptides [1]: 0.6 | Binding of Control serum Blood-bank to linear peptides [1]: 0.6 | Binding of Control serum LUMC to linear peptides [1]: 0.6 | Binding of Control serum LUMC to looped peptides [1]: 0.6 | Binding of serum 1a to linear peptides of protein X4 of SARS-CoV Urbani [2]: 0.7 | Binding of serum 1a to looped/cyclic peptides of protein X4 of SARS-CoV Urbani [2]: 0.7 | Binding of serum 1b to linear peptides of protein X4 of SARS-CoV Urbani [2]: 0.6 | Binding of serum 1b to looped/cyclic peptides of protein X4 of SARS-CoV Urbani [2]: 0.4 | Binding of serum 2 to linear peptides of protein X4 of SARS-CoV Urbani [2]: 0.6 | Binding of serum 2 to looped/cyclic peptides of protein X4 of SARS-CoV Urbani [2]: 0.6 | Binding of serum 6 to linear peptides of protein X4 of SARS-CoV Urbani [2]: 0.5 | Binding of serum 6 to looped/cyclic peptides of protein X4 of SARS-CoV Urbani [2]: 0.7 | Binding of serum 37 to linear peptides of protein X4 of SARS-CoV Urbani [2]: 0.7 | Binding of serum 37 to looped/cyclic peptides of protein X4 of SARS-CoV Urbani [2]: 0.7 | Binding of serum 62 to linear peptides of protein X4 of SARS-CoV Urbani [2]: 0.7 | Binding of serum 62 to looped/cyclic peptides of protein X4 of SARS-CoV Urbani [2]: 0.6 | Binding of serum London to linear peptides of protein X4 of SARS-CoV Urbani [2]: 0.7 | Binding of serum London to looped/cyclic peptides of protein X4 of SARS-CoV Urbani [2]: 0.3 | Binding of serum SARS-green to linear peptides of protein X4 of SARS-CoV Urbani [2]: 0.6 | Binding of serum SARS-green to looped/cyclic peptides of protein X4 of SARS-CoV Urbani [2]: 0.5 | Binding of serum SARS-yellow to linear peptides of protein X4 of SARS-CoV Urbani [2]: 0.7 | Binding of serum SARS-yellow to looped/cyclic peptides of protein X4 of SARS-CoV Urbani [2]: 0.6 | Recognition of the peptide by the rabbit serum [3]: recognized

ALYKGFQFICNLLLL
Binding of Control Serum Blood-Bank to Looped peptides [1]: 0.5 | Binding of Control serum Blood-bank to linear peptides [1]: 0.6 | Binding of Control serum LUMC to linear peptides [1]: 0.5 | Binding of Control serum LUMC to looped peptides [1]: 0.5 | Binding of serum 1a to linear peptides of protein X1 of SARS-CoV Urbani [2]: 0.6 | Binding of serum 1a to looped/cyclic peptide (PEPSCAN-ELISA) [2]: 0.4 | Binding of serum 1b to linear peptides of protein X1 of SARS-CoV Urbani [2]: 0.5 | Binding of serum 1b to looped/cyclic peptide (PEPSCAN-ELISA) [2]: 0.3 | Binding of serum 2 to linear peptides of protein X1 of SARS-CoV Urbani [2]: 0.4 | Binding of serum 2 to looped/cyclic peptide (PEPSCAN-ELISA) [2]: 0.3 | Binding of serum 6 to linear peptides of protein X1 of SARS-CoV Urbani [2]: 0.4 | Binding of serum 6 to looped/cyclic peptide (PEPSCAN-ELISA) [2]: 1.3 | Binding of serum 37 to linear peptides of protein X1 of SARS-CoV Urbani [2]: 0.5 | Binding of serum 37 to looped/cyclic peptide (PEPSCAN-ELISA) [2]: 0.4 | Binding of serum 62 to linear peptides of protein X1 of SARS-CoV Urbani [2]: 0.5 | Binding of serum 62 to looped/cyclic peptide (PEPSCAN-ELISA) [2]: 0.4 | Binding of serum London to linear peptides of protein X1 of SARS-CoV Urbani [2]: 0.2 | Binding of serum London to looped/cyclic peptide (PEPSCAN-ELISA) [2]: 1.4 | Binding of serum SARS-green to linear peptides of protein X1 of SARS-CoV Urbani [2]: 0.2 | Binding of serum SARS-green to looped/cyclic peptide (PEPSCAN-ELISA) [2]: 0.2 | Binding of serum SARS-yellow to linear peptides of protein X1 of SARS-CoV Urbani [2]: 0.5 | Binding of serum SARS-yellow to looped/cyclic peptide (PEPSCAN-ELISA) [2]: 0.4 | Binding of a rabbit serum to linear peptides [3]: 0.6 | Binding of a rabbit serum to looped peptides [3]: 0.4
